# Measured values reported in PMC12029662, “Cytotoxicity Comparison of ^99mTc-Labeled Peptide Antagonist and Agonist Targeting the SSTR2 Receptor in AR42J Cells” (Molecules, 2025).
# pKd: −log10 of the molar value. Read-outs that look alike come from different tables or passages of the source. Positions of bridges follow the written chain, without caps; N, C: chain ends. Non-standard residues stand in square brackets, D forms with d. dPhe(4-NHCONH2) = NC(=O)Nc1ccc(C[C@@H](N)C(=O)O)cc1; Phe(4-Cl) = N[C@@H](Cc1ccc(Cl)cc1)C(=O)O; N4 = N4 chelator for 99mTc
# Tests used:
# SSTR2 = target: T1, SSTR2 (Rattus norvegicus, UniProt P30680); assay: Saturation binding affinity assay on AR-42-J cells; details: for Specific binding on AR42J cells, antagonist compared with agonist: specific = total minus nonspecific binding, Figure 2
# T1 construct: AR-42-J cells were seeded in 6-well plates; host or cells: AR-42-J (AR42J) rat pancreatic tumour cells, intact, no transfection described
# T1 sequence (P30680 whole entry): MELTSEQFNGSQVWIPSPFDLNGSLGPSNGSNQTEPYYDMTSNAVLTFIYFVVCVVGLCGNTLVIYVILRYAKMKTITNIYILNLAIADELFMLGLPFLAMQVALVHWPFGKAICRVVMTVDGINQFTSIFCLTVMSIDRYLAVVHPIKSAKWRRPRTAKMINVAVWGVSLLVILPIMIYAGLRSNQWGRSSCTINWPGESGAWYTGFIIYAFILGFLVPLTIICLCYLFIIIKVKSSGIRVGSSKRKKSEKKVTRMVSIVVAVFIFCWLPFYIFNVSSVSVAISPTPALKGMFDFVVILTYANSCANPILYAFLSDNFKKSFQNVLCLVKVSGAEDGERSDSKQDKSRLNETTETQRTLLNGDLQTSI
# Experimental: Figure 2 illustrates the relationship between specific binding and the concentration of the radioconjugates. In Supplementary Materials Figure S1, we included experimental data on total binding and non-specific binding in the presence of a 2000-fold excess of octreotide, which allowed us to determine specific binding.
# Following incubation, the cells were washed with PBS, collected into tubes and then lysed twice using 800 μL of 1 M NaOH (for 12-well plate) and 1.5 mL of 1 M NaOH (for 6-well plates). The lysates were collected in separate tubes and radioactivity was measured using Wizard2 gamma counter, PerkinElmer, Waltham, MA, USA. The lysates were transferred to separate tubes and radioactivity was quantified using Wizard2 gamma counter.
# AR42J cells [1] = assay: Internalization assay (membrane-bound vs internalized fraction); format: cell-based, rat; details: Figure 3
# Experimental: Briefly, AR42J cells (7 × 10^5 cells/well) were seeded in 6-well plates and incubated for 2 days. Following this incubation, the cells were washed twice with cold PBS and then treated with 5 nM of tested compounds. To avoid internalization, the cells were incubated at 4 °C for 1 h. Non-specific binding was assessed by adding a 1000-fold molar excess of unlabeled octreotide acetate. After incubation, unbound fraction was collected in tubes, and the cells were washed twice with 1 mL of cold PBS. Fresh medium was then added, and the cells were incubated at 37 °C for up to 24 h. At each time interval, the second medium portion was collected, and cells were washed twice with 1 mL of PBS. Next, the membrane-bound fraction was collected using 0.05 M glycine–HCl buffer (pH 2.8). Finally, the internalized fraction was obtained by lysing the cells with 1.5 mL of 1 M NaOH.
# AR42J cells [2] = assay: Cytotoxicity studies (MTS assay)
# Source text: The properties of agonist octreotide conjugates labeled with the radionuclide ^111In have been studied in several works, primarily for imaging but also for Auger electron therapy. The ^111In not only emits gamma quanta but also produces 7.4 Auger electrons. […] In a few works, Maecke et al. also studied ^111In radioconjugates with SSTR receptor antagonists, but these studies were focused on tumor imaging and the therapeutic effect was not investigated. […] They are easily repairable and the cells could continue to divide.
# Figure 4 Cytotoxicity of ^99mTc-labeled SSTR2 receptor agonist TEKTROTYD (left graph) and antagonist TECANT-1 (right graph) for AR42J cells. The data results are expressed in mean ± standard deviation. One-way ANOVA analysis was used for multiple group comparisons, followed by Tukey’s test.
# A cytotoxicity assay was performed using the AR42J cell line. A total of 10^4 cells were seeded in 96-well plate and incubated overnight at 37 °C in a 5% CO2 atmosphere. The following day, the medium was removed and the cells were treated with radiocompounds at concentrations of 100, 50, 25, 12.5 MBq/mL The cells were then incubated for 24, 48, and 72 h. At each specified time point, 20 µL of MTS reagent was added to cells and incubated for 2 h. Absorbance at 490 nm was measured to estimate the percentage of cell metabolic activity. […] The average absorbance of these control wells was subtracted from the absorbance of wells containing treated cells.
# [3] = reported in multiple studies; cited from earlier work
# [4] = AR42J cells, MTS, 12.5–100 MBq/mL, Figure 4
substance,measurement,setting,value
^99mTc-N4-p-Cl-Phe-cyclo(D-Cys-Tyr-D-4-amino-Phe(carbamoyl)-Lys-Thr-Cys)D-Tyr- NH2 (disulfide) [^99mTc-TECANT-1],"Specific binding on AR42J cells, antagonist compared with agonist",SSTR2,greater binding
same,Cellular localization in words,AR42J cells [1],most of the radioconjugate is accumulated in the cell membrane
same,Cytotoxicity in words,AR42J cells [2],significantly enhanced cytotoxic effect
same,Toxicity of antagonist relative to agonist,"AR42J cells [2]; AR42J cells, MTS, 12.5–100 MBq/mL, 24, 48, 72 h, Figure 4",two to three times higher
^99mTc-N4-p-Cl-Phe-cyclo(D-Cys-Tyr-D-4-amino-Phe(carbamoyl)-Lys-Thr-Cys)D-Tyr- NH2 (disulfide) ({99mTc-N4}-[Phe(4-Cl)][dC]Y[dPhe(4-NHCONH2)]KTC[dY]-NH2; disulfide 2-7; also: 99mTc complex via N4 chelator) [^99mTc-TECANT-1],pKd,"SSTR2; saturation curves, AR42J cells, 2 h incubation with 0.004–20 nM radiopeptide, non-specific binding with 2000-fold excess of octreotide, gamma counter",8.82
N4-p-Cl-Phe-cyclo(D-Cys-Tyr-DAph(Cbm)-Lys-Thr-Cys)-D-Tyr-NH2 (disulfide) [TECANT-1],"Specific binding on AR42J cells, antagonist compared with agonist",SSTR2,significantly greater
same,Cell viability after 72 h compared with earlier time points,AR42J cells [2]; [4],no such effect was observed
^99mTc-EDDA/HYNIC-3Tyr-octreotide (disulfide) [^99mTc-TEKTROTYD],Cytotoxicity in words,"AR42J cells [2]; AR42J cells, MTS assay",slight cytotoxicity
same,Cell viability after 72 h compared with earlier time points,AR42J cells [2]; [4],significant increase in cell viability observed after 72 h
same,"Stability in biological fluids, including human serum",[3],high stability
